Reference: patent publication US10172796B2, “Use of umirolimus and its derivatives for treating cancer” (Manli International Ltd., priority 2012, dated 2019)

Experiments:
[1] = tested on: SK-MES-1/lung; assay: CellTiter-Glo luminescent cell viability assay, SK-MES-1; assay type: cell-based, human; details: 72 hours of in vitro culture
Experimental: (§1) Umirolimus was added to cultured cell lines derived from 9 types of human cancer. After 72 hours of in vitro culture, the 50% inhibitory concentration (IC50) of umirolimus on cell growth was measured using the CellTiter-Glo luminescent cell viability assay.

[2] = tested on: K562/chronic myelogenous leukemia; assay: CellTiter-Glo luminescent cell viability assay, K562; assay type: cell-based, human; details: 72 hours of in vitro culture
Experimental: as §1

[3] = tested on: SNU-16/gastric; assay: CellTiter-Glo luminescent cell viability assay, SNU-16; assay type: cell-based, human; details: 72 hours of in vitro culture
Experimental: as §1

[4] = tested on: 11 cell lines from 9 types of human cancers; assay: CellTiter-Glo cell viability assay, summary over the cell line panel; assay type: cell-based; details: summary for all 11 cell lines of Table 1
Experimental: as §1

[5] = tested on: SK-HEP-1/liver; assay: CellTiter-Glo luminescent cell viability assay, SK-HEP-1; assay type: cell-based, human; details: 72 hours of in vitro culture
Experimental: as §1

[6] = tested on: RPMI-8226/multiple myeloma; assay: CellTiter-Glo luminescent cell viability assay, RPMI-8226; assay type: cell-based, human; details: 72 hours of in vitro culture
Experimental: as §1

[7] = tested on: A2780/ovarian; assay: CellTiter-Glo luminescent cell viability assay, A2780; assay type: cell-based, human; details: 72 hours of in vitro culture
Experimental: as §1

[8] = tested on: 10 human cancer cell lines; assay: Inhibition of cancer cell growth by umirolimus as compared to sirolimus and everolimus; assay type: cell-based; details: 8 out of the 10 cancer cell lines tested: A2780, SK-HEP-1, DLD-1, SNU-16, BxPC-3, 786-O, SK-MES-1, AZ-521; FIG. 1
Experimental: as §1
The IC50 for 3 “limus” drugs for inhibiting the growth of 10 human cancer cell is lines was measured using the CellTiter-Glo luminescent cell viability assay as described in Example 1. The ten exemplary human cancer cell lines tested were SK-MES-1 (lung cancer), BxPC-3 (pancreatic cancer), AZ-521 (gastric cancer), SNU-16 (gastric cancer), SK-HEP-1 (liver cancer), A2780 (ovarian cancer), MDA-MB-231 (breast cancer), DLD-1 (colorectal cancer), DU-145 (prostate cancer) and 786-O (kidney cancer).

[9] = tested on: BxPC-3/pancreatic; assay: CellTiter-Glo luminescent cell viability assay, BxPC-3; assay type: cell-based, human; details: 72 hours of in vitro culture
Experimental: as §1

[10] = tested on: MDA-MB-231/breast; assay: CellTiter-Glo luminescent cell viability assay, MDA-MB-231; assay type: cell-based, human; details: 72 hours of in vitro culture
Experimental: as §1

[11] = tested on: AZ-521/gastric; assay: CellTiter-Glo luminescent cell viability assay, AZ-521; assay type: cell-based, human; details: 72 hours of in vitro culture
Experimental: as §1

[12] = See J. Med. Chem. 2000, 43:2922-2928; cited from earlier work
[13] = tested on: NCI-H460/lung; assay: CellTiter-Glo luminescent cell viability assay, NCI-H460; assay type: cell-based, human; details: 72 hours of in vitro culture
Experimental: as §1

[14] = tested on: SW620/colorectal; assay: CellTiter-Glo luminescent cell viability assay, SW620; assay type: cell-based, human; details: 72 hours of in vitro culture
Experimental: as §1

Molecule `CCOCCO[C@@H]1CC[C@@H](C[C@@H](C)[C@@H]2CC(=O)[C@H](C)/C=C(\C)[C@@H](O)[C@@H](OC)C(=O)[C@H](C)C[C@H](C)/C=C/C=C/C=C(\C)[C@@H](OC)C[C@@H]3CC[C@@H](C)[C@@](O)(O3)C(=O)C(=O)N3CCCC[C@H]3C(=O)O2)C[C@H]1OC` [umirolimus] has an IC50 [1] of 8.24 µM, a Maximum inhibition [1] of 96.57% and an IC50 [2] of 7.97 µM. The Maximum inhibition [2] was 98.49%, the IC50 [3] was 1.14 µM and the Maximum inhibition [3] was 99.75%. For the same molecule, the IC50 [4] was < 10 µM, the IC50 [5] was 7.81 µM and the Maximum inhibition [5] was 99.97%. For the same molecule, the IC50 [6] was 6.8 µM, the Maximum inhibition [6] was 99.26% and the IC50 [7] was 7.31 µM. For the same molecule, the Maximum inhibition [7] was 100.19%, the “IC50 compared to sirolimus and everolimus” value [8] was “superior to that of sirolimus and everolimus” and the IC50 [9] was 3.07 µM. It also gave a Maximum inhibition [9] of 77.24%, an IC50 [10] of 9.52 µM and a Maximum inhibition [10] of 99.23%. For the same molecule, the IC50 [11] was 4.23 µM, the Maximum inhibition [11] was 99.88% and the “lipophilicity as compared to sirolimus and everolimus” value [12] was 10 times. For the same molecule, the IC50 [13] was 7.07 µM, the Maximum inhibition [13] was 88.99% and the IC50 [14] was 8.33 µM. For the same molecule, the Maximum inhibition [14] was 55.69%.
